Source: ChEMBL document CHEMBL4049425, “Fragment-Based, Structure-Enabled Discovery of Novel Pyridones and Pyridone Macrocycles as Potent Bromodomain and Extra-Terminal Domain (BET) Family Bromodomain Inhibitors” (J Med Chem, 2017)
Active and inactive are the calls of the source. The rule behind the calls is not given here.

Legend:
[1] = target: T1, Bromodomain-containing protein 4 (Homo sapiens, UniProt O60885); assay: Inhibition of BRD4 in human NCI-H1299 cells after 24 hrs by Bright-Glo luciferase reporter gene assay; assay type: cell-based
Mus musculus [2] = assay: Fraction absorbed in portal vein of mouse at 3 mg/kg, iv or 10 mg/kg, po; assay type: ADME, organism-based; conditions: in vivo
Liver [3] = assay: Unbound intrinsic clearance in mouse liver microsomes; assay type: ADME, microsome
[4] = Lipophilicity, log D of the compound; assay type: physicochemical; conditions: octanol/water
[5] = Fraction unbound in mouse plasma at 1 uM after 4 hrs by LC-MS/MS analysis; assay type: ADME, cell-free
[6] = Oral bioavailability in mouse at 10 mg/kg; assay type: ADME, organism-based; conditions: in vivo
Mus musculus [7] = assay: Dose normalized fAUC in mouse at 3 mg/kg, iv or 10 mg/kg, po; assay type: ADME, organism-based; conditions: in vivo
[8] = target: T1, Bromodomain-containing protein 4; assay: Inhibition of human N-terminal His6-tagged BRD4 BD1-BD2 (57 to 550 residues) expressed in EScherichia coli BL21(DE3) after 1 hr by Alexa-647-conjugated probe based TR-FRET assay
Liver [9] = assay: Unbound intrinsic clearance in rat liver microsomes; assay type: ADME, microsome
Mus musculus [10] = assay: Unbound plasma clearance in mouse at 3 mg/kg, iv or 10 mg/kg, po; assay type: ADME, organism-based; conditions: in vivo
Liver [11] = assay: Unbound intrinsic clearance in human liver microsomes; assay type: ADME, microsome
MX1 = assay: Antiproliferative activity against human MX1 cells after 72 hrs by Cell Titer Glo assay; assay type: functional, cell-based; conditions: MX1, 72 h
Rattus norvegicus [12] = assay: Unbound AUC in rat at 1 mg/kg, po; assay type: ADME, organism-based; conditions: in vivo
Mus musculus [13] = assay: Time required to reach in vitro EC50 for human OPM2 cells in SCID-Beige mouse xenografted with human OPM2 cells at 2 mg/kg, po
Mus musculus [14] = assay: Unbound AUC in mouse at 1 mg/kg, po; assay type: ADME, organism-based; conditions: in vivo
[15] = Fraction unbound in rat plasma; assay type: ADME, cell-free
Rattus norvegicus [16] = assay: Unbound clearance in rat at 1 mg/kg, iv or 1 mg/kg, po; assay type: ADME, organism-based; conditions: in vivo
Mus musculus [17] = assay: Toxicity in SCID-Beige mouse xenografted with human OPM2 cells assessed as weight loss at 2 mg/kg, po qd for 21 days (reference value: 2%); assay type: organism-based; conditions: in vivo, 504 h
[18] = Permeability of the compound by PAMPA; assay type: physicochemical; conditions: read-out: permeability
[19] = Oral bioavailability in rat at 1 mg/kg; assay type: ADME, organism-based; conditions: in vivo
[20] = Oral bioavailability in mouse at 1 mg/kg; assay type: ADME, organism-based; conditions: in vivo
OPM-2 [21] = assay: Antitumor activity against human OPM2 cells xenografted in SCID-Beige mouse assessed as tumor growth inhibition at 1 mg/kg, po qd for 21 days relative to control; assay type: functional; conditions: OPM-2, po, 504 h, read-out: TGI
OPM-2 [22] = assay: Antitumor activity against human OPM2 cells xenografted in SCID-Beige mouse assessed as tumor growth inhibition at 2 mg/kg, po qd for 21 days relative to control; assay type: functional; conditions: OPM-2, po, 504 h, read-out: TGI
Mus musculus [23] = assay: Toxicity in SCID-Beige mouse xenografted with human OPM2 cells assessed as weight loss at 1 mg/kg, po qd for 21 days (reference value: 2%); assay type: organism-based; conditions: in vivo, 504 h
OPM-2 [24] = assay: Antitumor activity against human OPM2 cells xenografted in SCID-Beige mouse assessed as tumor growth inhibition compound administered po qd for 21 days; assay type: functional, organism-based
Mus musculus [25] = assay: Unbound clearance in mouse at 1 mg/kg, iv or 1 mg/kg, po; assay type: ADME, organism-based; conditions: in vivo
Plasma [26] = assay: Free plasma concentration required to reach in vitro EC50 for human OPM2 cells in SCID-Beige mouse xenografted with human OPM2 cells at 1 to 2 mg/kg, po
[27] = Fraction unbound in SCID-Beige mouse plasma xenografted with human OPM2 cells at 1 to 2 mg/kg, po; assay type: ADME, organism-based
OPM-2 [28] = assay: Antiproliferative activity against human OPM2 cells; assay type: functional, cell-based
Rattus norvegicus [29] = assay: Fraction absorbed in portal vein of rat at 1 mg/kg, iv or 1 mg/kg, po; assay type: ADME, organism-based; conditions: in vivo
Mus musculus [30] = assay: Fraction absorbed in portal vein of mouse at 1 mg/kg, iv or 1 mg/kg, po; assay type: ADME, organism-based; conditions: in vivo
Plasma [31] = assay: Free plasma concentration required to reach in vitro EC50 for human OPM2 cells in SCID-Beige mouse xenografted with human OPM2 cells at 1 to 3 mg/kg, po
OPM-2 [32] = assay: Antitumor activity against human OPM2 cells xenografted in SCID-Beige mouse assessed as tumor growth inhibition at 3 mg/kg, po qd for 21 days relative to control; assay type: functional; conditions: OPM-2, po, 504 h, read-out: TGI
OPM-2 [33] = assay: Antitumor activity against human OPM2 cells xenografted in SCID-Beige mouse assessed as tumor growth inhibition at 1 to 3 mg/kg, po qd measured after 21 days; assay type: functional, organism-based
[34] = Fraction unbound in SCID-Beige mouse plasma xenografted with human OPM2 cells at 1 to 3 mg/kg, po; assay type: ADME, organism-based
Mus musculus [35] = assay: Toxicity in SCID-Beige mouse xenografted with human OPM2 cells assessed as weight loss at 3 mg/kg, po qd for 21 days (reference value: 2%); assay type: organism-based; conditions: in vivo, 504 h
Mus musculus [36] = assay: Time required to reach in vitro EC50 for human OPM2 cells in SCID-Beige mouse xenografted with human OPM2 cells at 3 mg/kg, po

## CCS(=O)(=O)Nc1ccc(Oc2ccc(F)cc2F)c(-c2cn(C)c(=O)cc2OC2COC2)c1
[1]
  EC50: 48 nM
Mus musculus [2]
  FaFg: 0.3
Liver [3]
  CL free: 150 mL/min/kg
[4]
  logD: 2.8 to 4.3
[5]
  fraction unbound at 4 h, 1 µM: 0.2
[6]
  bioavailability: 20%
Mus musculus [7]
  fAUC/dose: 0.026 µg·h/mL per mg/kg
[8]
  Ki: 9 nM
Liver [9]
  CL free: < 41.7 mL/min/kg
Mus musculus [10]
  CL free: 143 mL/min/kg
Liver [11]
  CL free: 76.7 mL/min/kg
MX1
  EC50: 25 nM

## CCS(=O)(=O)c1cnc2c(c1)-c1cn(C)c(=O)cc1OCCCCc1cc(Cl)ccc1O2
Rattus norvegicus [12]
  fAUC: 69 ng·h/mL
Mus musculus [13]
  Time: >12 h
[1]
  EC50: 34 nM
Liver [3]
  CL free: 267 mL/min/kg
Mus musculus [14]
  fAUC: 100 ng·h/mL
[4]
  logD: 2.8 to 4.3
[15]
  fraction unbound: 0.09
Rattus norvegicus [16]
  CL free: 233 mL/min/kg
Mus musculus [17]
  Activity: 4%
[5]
  fraction unbound at 4 h, 1 µM: 0.04
[18]
  Papp: 15 ×10⁻⁶ cm/s
[8]
  Ki: 8.9 nM
Liver [9]
  CL free: 73.3 mL/min/kg
[19]
  bioavailability: 95%
[20]
  bioavailability: 84%
OPM-2 [21]
  inhibition in vivo at 1 mg/kg: 73%
OPM-2 [22]
  inhibition in vivo at 2 mg/kg: 85%
Mus musculus [23]
  Activity: 4%
OPM-2 [24]
  TGI: Dose-dependent effect
Liver [11]
  CL free: 58.3 mL/min/kg
Mus musculus [25]
  CL free: 140 mL/min/kg
Plasma [26]
  Cp(f): 0.3 µM
[27]
  fraction unbound: 0.04
MX1
  EC50: 33 nM
OPM-2 [28]
  EC50: 12 nM
Rattus norvegicus [29]
  FaFg: 1
Mus musculus [30]
  FaFg: 0.9

## CCS(=O)(=O)Nc1cnc2c(c1)-c1cn(C)c(=O)cc1OCCCCc1cc(Cl)ccc1O2
Rattus norvegicus [12]
  fAUC: 5 ng·h/mL
[1]
  EC50: 9.3 nM
Liver [3]
  CL free: 1030 mL/min/kg
Mus musculus [14]
  fAUC: 120 ng·h/mL
[4]
  logD: 2.8 to 4.3
[15]
  fraction unbound: 0.12
Rattus norvegicus [16]
  CL free: 833 mL/min/kg
[5]
  fraction unbound at 4 h, 1 µM: 0.06
[18]
  Papp: 7.2 ×10⁻⁶ cm/s
[8]
  Ki: 3.4 nM
Liver [9]
  CL free: 153 mL/min/kg
[19]
  bioavailability: 19%
[20]
  bioavailability: 70%
Liver [11]
  CL free: 63.3 mL/min/kg
Mus musculus [25]
  CL free: 102 mL/min/kg
MX1
  EC50: 5.7 nM
Mus musculus [30]
  FaFg: 0.76

## CCS(=O)(=O)Nc1ccc(Oc2ccc(F)cc2F)c(-c2cn(C)c(=O)cc2OC)c1
[1]
  EC50: 56 nM
Mus musculus [2]
  FaFg: 0.89
Plasma [31]
  Cp(f): 0.16 µM
Liver [3]
  CL free: 267 mL/min/kg
[4]
  logD: 2.8 to 4.3
[5]
  fraction unbound at 4 h, 1 µM: 0.14
[6]
  bioavailability: 63%
OPM-2 [32]
  inhibition in vivo at 3 mg/kg: 73%
Mus musculus [7]
  fAUC/dose: 0.081 µg·h/mL per mg/kg
[8]
  Ki: 13 nM
Liver [9]
  CL free: 250 mL/min/kg
OPM-2 [33]
  TGI: inactive
Mus musculus [10]
  CL free: 183 mL/min/kg
OPM-2 [21]
  inhibition in vivo at 1 mg/kg: 66%
[34]
  fraction unbound: 0.14
Mus musculus [35]
  Activity: 5%
Mus musculus [23]
  Activity: 6%
Mus musculus [36]
  Time: 6.5 h
Liver [11]
  CL free: 76.7 mL/min/kg
MX1
  EC50: 47 nM
OPM-2 [28]
  EC50: 23 nM

## CCOc1cc(=O)n(C)cc1-c1cc(NS(=O)(=O)CC)ccc1Oc1ccc(F)cc1F
Mus musculus [2]
  FaFg: 0.79
Liver [3]
  CL free: < 100 mL/min/kg
[4]
  logD: 2.8 to 4.3
[5]
  fraction unbound at 4 h, 1 µM: 0.1
[6]
  bioavailability: 56%
Liver [9]
  CL free: 60 mL/min/kg
Mus musculus [10]
  CL free: 267 mL/min/kg
Liver [11]
  CL free: < 71.7 mL/min/kg

## Cn1cc2c(cc1=O)OCCCCc1cc(Cl)ccc1Oc1ncc(CS(C)(=O)=O)cc1-2
Rattus norvegicus [12]
  fAUC: 2 ng·h/mL
[1]
  EC50: 24 nM
Liver [3]
  CL free: 158 mL/min/kg
Mus musculus [14]
  fAUC: 85 ng·h/mL
[4]
  logD: 2.8 to 4.3
[15]
  fraction unbound: 0.24
Rattus norvegicus [16]
  CL free: 142 mL/min/kg
[5]
  fraction unbound at 4 h, 1 µM: 0.12
[18]
  Papp: 12 ×10⁻⁶ cm/s
[8]
  Ki: 11 nM
Liver [9]
  CL free: 107 mL/min/kg
[19]
  bioavailability: 2.8%
[20]
  bioavailability: 45%
Liver [11]
  CL free: 56.7 mL/min/kg
Mus musculus [25]
  CL free: 88.3 mL/min/kg
MX1
  EC50: 24 nM
Rattus norvegicus [29]
  FaFg: 0.42
Mus musculus [30]
  FaFg: 0.51

## CCOc1cc(=O)n(C)cc1-c1cc(S(=O)(=O)CC)ccc1Oc1ccc(F)cc1F
[1]
  EC50: 66 nM
Mus musculus [2]
  FaFg: 0.52
Liver [3]
  CL free: 200 mL/min/kg
[4]
  logD: 2.8 to 4.3
[5]
  fraction unbound at 4 h, 1 µM: 0.1
[6]
  bioavailability: 41%
Mus musculus [7]
  fAUC/dose: 0.039 µg·h/mL per mg/kg
Liver [9]
  CL free: 103 mL/min/kg
Mus musculus [10]
  CL free: 167 mL/min/kg
Liver [11]
  CL free: < 33 mL/min/kg
MX1
  EC50: 40 nM

## CCS(=O)(=O)Nc1ccc2c(c1)-c1cn(C)c(=O)cc1OCCCCc1cc(Cl)ccc1O2
Rattus norvegicus [12]
  fAUC: 1 ng·h/mL
[1]
  EC50: 5.1 nM
Liver [3]
  CL free: 2330 mL/min/kg
Mus musculus [14]
  fAUC: 16 ng·h/mL
[4]
  logD: 2.8 to 4.3
[15]
  fraction unbound: 0.02
Rattus norvegicus [16]
  CL free: 2330 mL/min/kg
[5]
  fraction unbound at 4 h, 1 µM: 0.01
[18]
  Papp: 2.2 ×10⁻⁶ cm/s
[8]
  Ki: 1.5 nM
Liver [9]
  CL free: 433 mL/min/kg
[19]
  bioavailability: 16%
[20]
  bioavailability: 39%
Liver [11]
  CL free: < 217 mL/min/kg
Mus musculus [25]
  CL free: 417 mL/min/kg
MX1
  EC50: 5.7 nM
Rattus norvegicus [29]
  FaFg: 0.44
Mus musculus [30]
  FaFg: 0.41
